| SMILES | melting point [°C] |
| --- | --- |
| CN1CCC(N(CCN2CCCC2)S(=O)(=O)c2ccc(Nc3nccc(Nc4ccc(F)cc4)n3)cc2)CC1 [Example 89, 4-({4-[(4-Fluorophenyl)amino]pyrimidin-2-yl}amino)-N-(1-methylpiperidin-4-yl)-N-(2-pyrrolidin-1-ylethyl)benzenesulfonamide] | 250 |
| CC(C)(O)CNCCN(C1CCNCC1)S(=O)(=O)c1ccc(Nc2nccc(Nc3ccc(F)cc3)n2)cc1 [Example 102, 4-({4-[(4-Fluorophenyl)amino]pyrimidin-2-yl}amino)-N-{2-[(2-hydroxy-2-methylpropyl)amino]ethyl}-N-piperidin-4-ylbenzenesulfonamide] | 120 |
| O=S(=O)(c1ccc(Nc2nccc(Nc3ccc(F)cc3)n2)cc1)N(CCNCC(F)(F)F)C1CCN(Cc2ccccc2)CC1 [Example 103, N-(1-Benzylpiperidin-4-yl)-4-({4-[(4-fluorophenyl)amino]pyrimidin-2-yl}amino)-N-{2-[(2,2,2-trifluoroethyl)amino]ethyl}benzenesulfonamide] | 137 to 138 |
| CCN1CC(N(CCN2CCCC2)S(=O)(=O)c2ccc(Nc3nccc(Nc4ccc(F)c(C)c4)n3)cc2)C1 [Example 104, N-(1-Ethylazetidin-3-yl)-4-({4-[(4-fluoro-3-methylphenyl)amino]pyrimidin-2-yl}amino)-N-(2-pyrrolidin-1-ylethyl)benzenesulfonamide] | 195 |
| CN(C1CCN(CCC(F)(F)F)CC1)S(=O)(=O)c1ccc(Nc2nccc(Nc3ccc(F)cc3)n2)cc1 [Example 107, 4-({4-[(4-Fluorophenyl)amino]pyrimidin-2-yl}amino)-N-methyl-N-[1-(3,3,3-trifluoropropyl)piperidin-4-yl]benzenesulfonamide] | 195 to 196 |
| CN(C1CCN(CCCC(F)(F)F)CC1)S(=O)(=O)c1ccc(Nc2nccc(Nc3ccc(F)c(F)c3)n2)cc1 [Example 108, 4-({4-[(3,4-Difluorophenyl)amino]pyrimidin-2-yl}amino)-N-methyl-N-[1-(4,4,4-trifluorobutyl)-piperidin-4-yl]benzenesulfonamide] | 192 |
| CN(C1CCN(CCC(F)(F)F)CC1)S(=O)(=O)c1ccc(Nc2nccc(Nc3ccc(F)c(F)c3)n2)cc1 [Example 109, 4-({4-[(3,4-Difluorophenyl)amino]pyrimidin-2-yl}amino)-N-methyl-N-[1-(3,3,3-trifluoro-propyl)piperidin-4-yl]benzenesulfonamide] | 202 to 203 |
| Cc1cc(Nc2ccnc(Nc3ccc(S(=O)(=O)N(C)C4CCN(Cc5cccn5C)CC4)cc3)n2)ccc1F [Example 110, 4-({4-[(4-Fluoro-3-methylphenyl)amino]-pyrimidin-2-yl}amino)-N-methyl-N-{1-[(1-methyl-1H-pyrrol-2-yl)methyl]piperidin-4-yl}benzenesulfonamide] | 159 to 160 |
| Cc1cc(Nc2ccnc(Nc3ccc(S(=O)(=O)N(C)C4CCN(Cc5cc[nH]c5)CC4)cc3)n2)ccc1F [Example 111, 4-({4-[(4-Fluoro-3-methylphenyl)amino]-pyrimidin-2-yl}amino)-N-methyl-N-{1-[(1H-pyrrol-3-yl)-methyl]piperidin-4-yl}benzenesulfonamide] | 134 to 139 |
| CN(C1CCN(CC(F)(F)F)CC1)S(=O)(=O)c1ccc(Nc2nccc(Nc3ccc(F)cc3)n2)cc1 [Example 112, 4-({4-[(4-Fluorophenyl)amino]pyrimidin-2-yl}amino)-N-methyl-N-[1-(2,2,2-trifluoroethyl)piperidin-4-yl]benzenesulfonamide] | 201 to 202 |
| CN(C1CCSCC1)S(=O)(=O)c1ccc(Nc2nccc(Nc3ccc(F)cc3)n2)cc1 [Example 113, 4-({4-[(4-Fluorophenyl)amino]pyrimidin-2-yl}amino)-N-methyl-N-(tetrahydro-2H-thiopyran-4-yl)-benzenesulfonamide] | 181.5 |
| CN(C)CCN(C1CCS(=O)(=O)C1)S(=O)(=O)c1ccc(Nc2nccc(Nc3ccc(F)cc3)n2)cc1 (stereo not drawn) [Example 114, N-[2-(Dimethylamino)ethyl]-N-(1,1-dioxido-tetrahydro-3-thienyl)-4-({4-[(4-fluorophenyl)amino]-pyrimidin-2-yl}amino)benzenesulfonamide] | 162 to 165 |
| CN(C1CCC(=O)CC1)S(=O)(=O)c1ccc(Nc2nccc(Nc3ccc(F)cc3)n2)cc1 [Example 118, 4-({4-[(4-Fluorophenyl)amino]pyrimidin-2-yl}amino)-N-methyl-N-(4-oxocyclohexyl)benzenesulfonamide] | 203 |
| O=S(=O)(c1ccc(Nc2nccc(Nc3ccc(F)cc3)n2)cc1)N(CCN1CCCC1)[C@H]1CC[C@H](O)CC1 [Example 119, 4-({4-[(4-Fluorophenyl)amino]pyrimidin-2-yl}amino)-N-(trans-4-hydroxycyclohexyl)-N-(2-pyrrolidin-1-ylethyl)benzenesulfonamide] | 135.2 |
| CN(C1CCC(O)CC1)S(=O)(=O)c1ccc(Nc2nccc(Nc3ccc(F)cc3)n2)cc1 (stereo not drawn) [Example 120, 4-({4-[(4-Fluorophenyl)amino]pyrimidin-2-yl}amino)-N-(4-hydroxycyclohexyl)-N-methylbenzene-sulfonamide] | 203 |
| CNC1CCC(N(C)S(=O)(=O)c2ccc(Nc3nccc(Nc4ccc(F)cc4)n3)cc2)CC1 (stereo not drawn) [Example 121, 4-({4-[(4-Fluorophenyl)amino]pyrimidin-2-yl}amino)-N-methyl-N-[4-cis(methylamino)cyclohexyl]-benzenesulfonamide] | 192 |
| CNC1CCC(N(C)S(=O)(=O)c2ccc(Nc3nccc(Nc4ccc(F)cc4)n3)cc2)CC1 (stereo not drawn) [Example 122, 4-({4-[(4-Fluorophenyl)amino]pyrimidin-2-yl}amino)-N-methyl-N-[4-trans(methylamino)cyclohexyl]-benzenesulfonamide] | 195 |
| CCSCCN1CCC(NS(=O)(=O)c2ccc(Nc3nccc(Nc4ccc(F)cc4)n3)cc2)CC1 [Example 125, N-{1-[2-(Ethylthio)ethyl]piperidin-4-yl}-4-({4-[(4-fluorophenyl)amino]pyrimidin-2-yl}amino)-benzenesulfonamide] | 194 |
| CS(=O)(=O)CCN1CCC(NS(=O)(=O)c2ccc(Nc3nccc(Nc4ccc(F)cc4)n3)cc2)CC1 [Example 126, 4-({4-[(4-Fluorophenyl)amino]pyrimidin-2-yl}amino)-N-{1-[2-(methylsulfonyl)ethyl]piperidin-4-yl}benzenesulfonamide] | 183 |
| COCCN(C1CCS(=O)(=O)C1)S(=O)(=O)c1ccc(Nc2nccc(Nc3ccc(F)cc3)n2)cc1 (stereo not drawn) [Example 127, 4-[[4-[(4-Fluorophenyl)amino]-2-pyrimidin-yl]amino]-N-(2-methoxyethyl)-N-(tetrahydro-1,1-dioxido-3-thienyl)benzenesulfonamide] | 150 |
| C=CCN(C1CCN(C)CC1)S(=O)(=O)c1ccc(Nc2nccc(Nc3ccc(F)cc3)n2)cc1 [Example 128, 4-({4-[(4-Fluorophenyl)amino]pyrimidin-2-yl}amino)-N-allyl-N-(1-methylpiperidin-4-yl)benzene-sulfonamide] | 167 |
| Cc1cc(Nc2ccnc(Nc3ccc(S(=O)(=O)N(C)C4CCN(CCS(C)(=O)=O)CC4)cc3)n2)ccc1F [Example 129, 4-({4-[(4-Fluoro-3-methylphenyl)amino]-pyrimidin-2-yl}amino)-N-methyl-N-{1-[2-(methyl-sulfonyl)ethyl]piperidin-4-yl}benzenesulfonamide] | 114.5 |
| CCCN(C1CCN(C)CC1)S(=O)(=O)c1ccc(Nc2nccc(Nc3ccc(F)cc3)n2)cc1 [Example 130, 4-({4-[(4-Fluorophenyl)amino]pyrimidin-2-yl}amino)-N-propyl-N-(1-methylpiperidin-4-yl)benzene-sulfonamide] | 232 |
| Cc1cc(Nc2ccnc(Nc3ccc(S(=O)(=O)N(C)C4CCN(Cc5nccs5)CC4)cc3)n2)ccc1F [Example 131, 4-({4-[(4-Fluoro-3-methylphenyl)amino]-pyrimidin-2-yl}amino)-N-methyl-N-{1-[(1-thiazol-2-yl)-methyl]piperidin-4-yl}benzenesulfonamide] | 176 to 177 |
| Cc1cc(Nc2ccnc(Nc3ccc(S(=O)(=O)N(C)C4CCN(Cc5cncs5)CC4)cc3)n2)ccc1F [Example 132, 4-({4-[(4-Fluoro-3-methylphenyl)amino]-pyrimidin-2-yl}amino)-N-methyl-N-{1-[(1-thiazol-5-yl)-methyl]piperidin-4-yl}benzenesulfonamide] | 196 to 197 |
| Cc1cc(Nc2ccnc(Nc3ccc(S(=O)(=O)N(C)C4CCN(Cc5cn[nH]c5)CC4)cc3)n2)ccc1F [Example 134, 4-({4-[(4-Fluoro-3-methylphenyl)amino]-pyrimidin-2-yl}amino)-N-methyl-N-{1-[(1H-pyrazol-4-yl)methyl]piperidin-4-yl}benzenesulfonamide] | 224 |
| Cc1cc(Nc2ccnc(Nc3ccc(S(=O)(=O)N(C)C4CCN(Cc5cnn(C)c5)CC4)cc3)n2)ccc1F [Example 135, 4-({4-[(4-Fluoro-3-methylphenyl)amino]-pyrimidin-2-yl}amino)-N-methyl-N-{1-[(1-methyl-1H-pyrazol-4-yl)methyl]piperidin-4-yl}benzenesulfonamide] | 125 to 150 |
| Cc1cc(CN2CCC(N(C)S(=O)(=O)c3ccc(Nc4nccc(Nc5ccc(F)c(C)c5)n4)cc3)CC2)[nH]n1 [Example 136, 4-({4-[(4-Fluoro-3-methylphenyl)amino]-pyrimidin-2-yl}amino)-N-methyl-N-{1-[(5-methyl-2H-pyrazol-3-yl)methyl]piperidin-4-yl}benzenesulfonamide] | 130 |
| Cc1cc(Nc2ccnc(Nc3ccc(S(=O)(=O)N(C)C4CCC(F)(F)CC4)cc3)n2)ccc1F [Example 137, N-(4,4-Difluorocyclohexyl)-4-[4-(4-fluoro-3-methylphenylamino)pyrimidin-2-ylamino]-N-methyl-benzenesulfonamide] | 164 to 165 |
| Cc1cc(CN2CCC(N(C)S(=O)(=O)c3ccc(Nc4nccc(Nc5ccc(F)c(C)c5)n4)cc3)CC2)no1 [Example 138, 4-({4-[(4-Fluoro-3-methylphenyl)amino]-pyrimidin-2-yl}amino)-N-methyl-N-{1-[(5-methylisoxazol-3-yl)methyl]piperidin-4-yl}benzenesulfonamide] | 172 to 173 |

Reference: patent US20080269170A1, “Novel 2,4-Dianilinopyrimidine Derivatives, the Preparation Thereof, Their Use as Medicaments, Pharmaceutical Compositions and, in Particular, as IKK Inhibitors” (sanofi-aventis, priority 2005, published 2008)
